What was measured:
[1] = target: MAT2A (Homo sapiens, UniProt P31153); assay: Streptavidin bead pull-down binding assay, GST-MAT2A; parameters: GST (N); made in house; conditions: recombinant protein from E. coli
Method: (§1) MAT2A and MAT2B were cloned into pGEX6p3 vector. The constructs were transfected into E. coli BL21. The GST-fusion proteins were induced by IPTG and purified by glutathione beads as described previously (See Liu, beta-Trcp couples beta-catenin phosphorylation-degradation and regulates Xenopus axis formation. Proc Natl Acad Sci USA 1999, 96, 6273-8). For the binding assay, purified proteins were incubated with streptavidin beads and biotinylated FlDAS 13 described above. Eluted proteins were analyzed by western blot with antibodies against GST, MAT2A or MAT2B.
(§2) Since MAT2A and MAT2B bind each other and form a complex, to determine which subunit directly interacts with FIDAS reagents, recombinant MAT2A and MAT2B were purified and tested for interaction with FIDAS. Briefly, GST-MAT2A and GST-MAT2B fusion proteins were expressed and purified from E. coli. These proteins were incubated with streptavidin beads with or without biotinylated derivative 13 (FIG. 9A). The binding proteins were eluted by 2.5 mM D-biotin and analyzed by Western blot with an anti-GST-Ab.

[2] = target: T1, MAT2B (Homo sapiens, UniProt Q9NZL9); assay: Streptavidin bead pull-down binding assay, GST-MAT2B; conditions: recombinant protein from E. coli
T1 construct: made in house; host or cells: E. coli BL21
T1 sequence (Q9NZL9 1-334): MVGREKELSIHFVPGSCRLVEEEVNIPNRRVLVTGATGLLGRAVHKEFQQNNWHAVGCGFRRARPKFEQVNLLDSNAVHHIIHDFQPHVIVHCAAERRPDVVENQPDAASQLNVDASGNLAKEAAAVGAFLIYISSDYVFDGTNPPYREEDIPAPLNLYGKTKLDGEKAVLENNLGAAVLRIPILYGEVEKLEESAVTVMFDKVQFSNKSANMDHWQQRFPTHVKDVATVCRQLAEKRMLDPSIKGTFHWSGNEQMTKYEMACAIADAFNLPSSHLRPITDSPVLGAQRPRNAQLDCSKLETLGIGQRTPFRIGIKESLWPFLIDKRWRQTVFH
Method: as §1, §2

[3] = target: T2, MAT2A-K265L (Homo sapiens, UniProt P31153, K265L); assay: In vitro binding assay, mutant MAT2A (K265L); conditions: lysine 265 mutated to leucine
T2 construct: made in house
Text: To test if the halogenated stilbene analogs of the present disclosure also bind MAT1A, a His-tagged MAT1A was cloned in and purified from E. coli. […] According to published MAT structures, several key residues are involved in substrate binding and catalysis. Among these key residues, lysine 265 is conserved between MAT1A and MAT2A and among different species. […] Taken together, the FlDAS reagents are specific inhibitors of MAT2A, and are promising drug candidates for multiple cancers as well as metabolic diseases.

T2 sequence (P31153 whole entry K265L): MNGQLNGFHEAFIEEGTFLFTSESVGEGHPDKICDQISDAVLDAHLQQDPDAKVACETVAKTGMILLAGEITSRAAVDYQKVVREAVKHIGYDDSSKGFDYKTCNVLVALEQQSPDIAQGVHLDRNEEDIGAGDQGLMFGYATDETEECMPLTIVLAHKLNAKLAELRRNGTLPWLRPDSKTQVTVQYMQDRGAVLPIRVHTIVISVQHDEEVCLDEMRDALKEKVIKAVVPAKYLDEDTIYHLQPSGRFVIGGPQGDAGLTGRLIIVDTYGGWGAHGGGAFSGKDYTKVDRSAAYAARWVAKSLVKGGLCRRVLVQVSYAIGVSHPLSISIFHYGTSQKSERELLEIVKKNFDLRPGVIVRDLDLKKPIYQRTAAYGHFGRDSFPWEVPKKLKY
MAT2A, sequence (P31153 whole entry, the tested form may be a part): as the sequence (P31153 whole entry K265L) above, with L265K counted along it

- binding to MAT2A [1]: directly binds
- binding to MAT2B [2]: indirectly through MAT2A
- binding to mutant MAT2A (K265L) [3]: significantly decreased
SMILES: CN(CC(=O)NCCOCCOCCNC(=O)CCCCC1SCC2NC(=O)NC21)c1ccc(C=Cc2c(F)cccc2F)cc1 (stereo not drawn) [compound 13, N-(2-(4-(2,6-Difluorostyryl)phenyl)-4-oxo-8,11-dioxa-2,5-diazamidecan-13-yl)-5-(2-oxohexahydro-1H-thieno[3,4-d]imidazol-4-yl)pentanamide]
